The values that follow come from patent US10815222B2, “Compounds for use in the treatment of kinetoplastid infection” (C.N.C.C.S. S.c.a.r.l. COLLEZIONE NAZIONALE DEI COMPOSTI …, priority 2016, dated 2020).

Molecules are shown by their SMILES. Some results are limits rather than exact numbers.

The test system of this assay is Bloodstream form of Trypanosoma brucei, strain Lister 427. Description: Trypanosoma brucei growth inhibition assay (CellTiter-Glo, 24 h). In kind it is cell-based. As to conditions: Trypanosoma brucei; T. Brucei Growth Inibition Assay, class symbols; read-out: T. Brucei GI EC50. A digest of the protocol:
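Growth read-out was CellTiter-Glo luminescence after 24 h at 37 °C incubation of 1500 bloodstream-form Lister 427 trypanosomes per well with compound, in supplemented IMDM containing 10% FBS and at most 0.25% DMSO.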
(In ATP-based viability assays light output follows the ATP content of the culture.)
By EC50 is commonly meant the concentration at which the effect is half-maximal. Take `COc1cc2nc(C(F)(F)F)n(CC(=O)N3CCN(CC4CCOC4)C[C@H]3c3ncc(-c4cc5ccccc5nc4OC)[nH]3)c2cc1OC` (stereo partly drawn) [2-(5,6-dimethoxy-2-(trifluoromethyl)-1H-benzo[d]imidazol-1-yl)-1-((2S)-2-(5-(2-methoxyquinolin-3-yl)-1H-imidazol-2-yl)-4-((tetrahydrofuran-3-yl)methyl)piperazin-1-yl)ethan-1-one]: the EC50 is less than 100 nM.

In the case of `COc1ccc2[nH]c(C)c(CC(=O)N3CCN(C)CC3c3ncc(-c4ccc5ccccc5c4)n3C)c2c1` (stereo not drawn), the EC50 is 1010 to 5000 nM.

As for `COc1ccc2nc(C)n(CC(=O)N3CCN(CC4CCOC4)C[C@H]3c3ncc(-c4cc5ccccc5nc4OC)[nH]3)c2c1` (stereo partly drawn) [2-(6-methoxy-2-methyl-1H-benzo[d]imidazol-1-yl)-1-((2S)-2-(5-(2-methoxyquinolin-3-yl)-1H-imidazol-2-yl)-4-((tetrahydrofuran-3-yl)methyl)piperazin-1-yl)ethan-1-one], the EC50 was less than 100 nM.

As for `COc1ccc2nc(C)n(CC(=O)N3CCOCC3c3ncc(-c4cc5ccccc5nc4OC)[nH]3)c2c1` (stereo not drawn), the EC50 lay in the range of 1010 to 5000 nM.

As to `COc1ccc2nc(C(F)(F)F)n(CC(=O)N3CC[C@H](N(Cc4ccn(C)n4)C(C)C)C[C@H]3c3ncc(-c4cc5ccccc5nc4OC)[nH]3)c2c1` [1-((2S,4S)-4-(isopropyl((1-methyl-1H-pyrazol-3-yl)methyl)amino)-2-(5-(2-methoxyquinolin-3-yl)-1H-imidazol-2-yl)piperidin-1-yl)-2-(6-methoxy-2-(trifluoromethyl)-1H-benzo[d]imidazol-1-yl)ethan-1-one], the EC50 was less than 100 nM.

Consider `CCCCCCN1CCN(C(=O)Cc2n[nH]c3ccccc23)C(c2ncc(-c3ccc4ccccc4c3)[nH]2)C1` (stereo not drawn), for which the EC50 fell in the range of 1010 to 5000 nM.

On to `COc1nc2ccccc2cc1-c1cnc(C2CN(C)CCN2C(=O)Cc2ccccc2)[nH]1` (stereo not drawn) [1-(2-(5-(2-methoxyquinolin-3-yl)-1H-imidazol-2-yl)-4-methylpiperazin-1-yl)-2-phenylethan-1-one], for which the EC50 is 1010 to 5000 nM.

Regarding `COc1ccc2nc(C)n(CC(=O)N3CCS(=O)(=O)CC3c3ncc(-c4cc5ccccc5nc4OC)[nH]3)c2c1` (stereo not drawn), the EC50 lay in the range of 1010 to 5000 nM.

As to `COc1ccc2nc(C)n(CC(=O)N3CCN(CC4CCOC4)C[C@H]3c3ncc(-c4ccc(-c5ccccc5)nc4OC)[nH]3)c2c1` (stereo partly drawn), the concentration giving a half-maximal response (EC50) was in the range of 510 to 1000 nM.

As to `COc1nc2ccccc2cc1-c1cnc(C2CN(Cc3ccccc3)CCN2C(=O)Cc2c(C)[nH]c3ccc(F)cc23)[nH]1` (stereo not drawn), the EC50 lay within 100 to 500 nM.

On to `COc1ccc2cc(C)n(CC(=O)N3CCN(C)CCC3c3ncc(-c4cc5ccccc5nc4OC)[nH]3)c2c1` (stereo not drawn), for which the EC50 lay in the range of 510 to 1000 nM.

As for `Cc1[nH]c2ccccc2c1CC(=O)N1CCN(CC2CCOC2)CC1c1ncc(-c2ccc3ccccc3c2)[nH]1` (stereo not drawn) [2-(2-methyl-1H-indol-3-yl)-1-(2-(5-(naphthalen-2-yl)-1H-imidazol-2-yl)-4-((tetrahydrofuran-3-yl)methyl)piperazin-1-yl)ethan-1-one], the EC50 was less than 100 nM.

With `O=C(Cc1n[nH]c2ccccc12)N1CCN(Cc2ccccc2)CC1c1ncc(-c2ccc3ccccc3c2)[nH]1` (stereo not drawn), the EC50 lay in the range of 1010 to 5000 nM.

In the case of `COc1nc2ccccc2cc1-c1cnc(C2COCCN2C(=O)Cc2c(C)[nH]c3ccc(F)cc23)[nH]1` (stereo not drawn), the EC50 lay in the range of 510 to 1000 nM.

Take `COc1ccc2nc(C(F)(F)F)n(CC(=O)N3CCN(CCc4csc(C)n4)CCC3c3ncc(-c4cc5ccccc5nc4OC)[nH]3)c2c1` (stereo not drawn): the EC50 fell in the range of 100 to 500 nM.

Turning to `CN1CCN(C(=O)Cc2ccccc2F)C(c2ncc(-c3ccc4ccccc4c3)[nH]2)C1` (stereo not drawn), the EC50 lay within 1010 to 5000 nM.

As to `COc1nc2ccccc2cc1-c1cnc([C@@H]2CN(CC3CCOC3)CCN2C(=O)Cn2c(C)nc3cc(C(F)(F)F)ccc32)[nH]1` (stereo partly drawn), the EC50 lay within 100 to 500 nM.

On to `COc1nc2ccccc2cc1-c1cnc(C2CN(CC3CCOC3)CCN2C(=O)Cc2c(C)[nH]c3ccccc23)[nH]1` (stereo not drawn), for which the concentration for a half-maximal effect (EC50) was 100 to 500 nM.

With `CCC(=O)CCCN1CCN(C(=O)Cc2c[nH]c3ncccc23)C(c2ncc(-c3cc4ccccc4nc3OC)[nH]2)C1` (stereo not drawn), the EC50 was 510 to 1000 nM.

Consider `COc1ccc2c(c1)C(CC(=O)N1CCN(C)CC1c1ncc(-c3ccc4ccccc4c3)[nH]1)C(=O)N2` (stereo not drawn), for which the EC50 is 1010 to 5000 nM.

`COc1ccc2nc(C)n(CC(=O)N3CCN(C)CCC3c3ncc(-c4cc5ccccc5nc4OC)[nH]3)c2c1` (stereo not drawn): the EC50 fell in the range of 1010 to 5000 nM.

In the case of `COc1ccc2nc(C(F)(F)F)n(CC(=O)N3CCN(Cc4nccs4)CCC3c3ncc(-c4cc5ccccc5nc4OC)[nH]3)c2c1` (stereo not drawn) [2-(6-methoxy-2-(trifluoromethyl)-1H-benzo[d]imidazol-1-yl)-1-(7-(5-(2-methoxyquinolin-3-yl)-1H-imidazol-2-yl)-4-(thiazol-2-ylmethyl)-1,4-diazepan-1-yl)ethan-1-one], the EC50 was less than 100 nM.

For `COc1nc2ccccc2cc1-c1cnc(C2CN(CC(C)C)CCN2C(=O)Cc2c(C)[nH]c3ccc(F)cc23)[nH]1` (stereo not drawn), the EC50 lay within 100 to 500 nM.

In the case of `CN1CCN(C(=O)Cc2ccccc2)C(c2ncc(-c3ccc4ncccc4c3)[nH]2)C1` (stereo not drawn), the EC50 lay in the range of 1010 to 5000 nM.

As for `CCC(=O)CCCN1CCN(C(=O)c2cncs2)C(c2ncc(-c3ccc4ccccc4c3)[nH]2)C1` (stereo not drawn), the EC50 lay in the range of 1010 to 5000 nM.

As for `CCC(=O)CCCN1CCN(C(=O)Cc2ccccc2)C(c2ncc(-c3cc4ccccc4nc3OC)[nH]2)C1` (stereo not drawn), the EC50 was in the range of 1010 to 5000 nM.

In the case of `COc1ccc2cc(C)n(CC(=O)N3CCN(Cc4ccn(C)n4)CCC3c3ncc(-c4cc5ccccc5nc4OC)[nH]3)c2c1` (stereo not drawn) [2-(6-methoxy-2-methyl-1H-indol-1-yl)-1-(7-(5-(2-methoxyquinolin-3-yl)-1H-imidazol-2-yl)-4-((1-methyl-1H-pyrazol-3-yl)methyl)-1,4-diazepan-1-yl)ethan-1-one], the EC50 is less than 100 nM.

Turning to `COc1nc2ccccc2cc1-c1cnc(C2CN(CC3CCOC3)CCN2C(=O)CS(=O)(=O)c2ccccc2)[nH]1` (stereo not drawn), the EC50 was 1010 to 5000 nM.

As for `COc1ccc2nc(C)n(CC(=O)N3CCN(CC4CCOC4)C[C@H]3c3ncc(C#Cc4ccccn4)[nH]3)c2c1` (stereo partly drawn) [2-(6-methoxy-2-methyl-1H-benzo[d]imidazol-1-yl)-1-((2S)-2-(5-(pyridin-2-ylethynyl)-1H-imidazol-2-yl)-4-((tetrahydrofuran-3-yl)methyl)piperazin-1-yl)ethan-1-one], the EC50 was 1010 to 5000 nM.

In the case of `O=C(Cc1c[nH]c2ncccc12)N1CCCCC1c1ncc(-c2ccc3ccccc3c2)[nH]1` (stereo not drawn), the EC50 was in the range of 1010 to 5000 nM.

For the compound `COc1ccc2nc(C)n(CC(=O)N3CCN(Cc4ccn(C)n4)C[C@H]3c3ncc(-c4cc5ccccc5nc4OC)[nH]3)c2c1` [(S)-2-(6-methoxy-2-methyl-1H-benzo[d]imidazol-1-yl)-1-(2-(5-(2-methoxyquinolin-3-yl)-1H-imidazol-2-yl)-4-((1-methyl-1H-pyrazol-3-yl)methyl)piperazin-1-yl)ethan-1-one], the EC50 was less than 100 nM.

Regarding `COc1ccc2nc(C(F)(F)F)n(CC(=O)N3CC[C@H](NCCn4cccn4)C[C@H]3c3ncc(-c4cc5ccccc5nc4OC)[nH]3)c2c1` [1-((2S,4S)-4-((2-(1H-pyrazol-1-yl)ethyl)amino)-2-(5-(2-methoxyquinolin-3-yl)-1H-imidazol-2-yl)piperidin-1-yl)-2-(6-methoxy-2-(trifluoromethyl)-1H-benzo[d]imidazol-1-yl)ethan-1-one], the EC50 was less than 100 nM.

Take `COc1ccc2nc(C)n(CC(=O)N3CC[C@H](N4CCOCC4)C[C@H]3c3ncc(-c4cc5ccccc5nc4OC)[nH]3)c2c1` [2-(6-methoxy-2-methyl-1H-benzo[d]imidazol-1-yl)-1-((2S,4S)-2-(5-(2-methoxyquinolin-3-yl)-1H-imidazol-2-yl)-4-morpholinopiperidin-1-yl)ethan-1-one]: the EC50 was 100 to 500 nM.

For the compound `CCC(=O)CCCN1CCN(C(=O)Nc2ccccc2)C(c2ncc(-c3ccc4ccccc4c3)[nH]2)C1` (stereo not drawn) [2-(5-(naphthalen-2-yl)-1H-imidazol-2-yl)-4-(4-oxohexyl)-N-phenylpiperazine-1-carboxamide], the EC50 was 1010 to 5000 nM.

As to `COc1ccc2c(c1)C(CC(=O)N1CCN(CC3CCOC3)CC1c1ncc(-c3cc4ccccc4nc3OC)[nH]1)C(=O)N2` (stereo not drawn), the EC50 is 1010 to 5000 nM.

As to `COc1nc2ccccc2cc1-c1cnc([C@@H]2CN(CC3CCOC3)CCN2C(=O)Cn2c(C(N)=O)nc3ccccc32)[nH]1` (stereo partly drawn), the EC50 fell in the range of 510 to 1000 nM.

Consider `COc1ccc2nc(C(F)(F)F)n(CC(=O)N3CCN(Cc4cscn4)CCC3c3ncc(-c4cc5ccccc5nc4OC)[nH]3)c2c1` (stereo not drawn) [2-(6-methoxy-2-(trifluoromethyl)-1H-benzo[d]imidazol-1-yl)-1-(7-(5-(2-methoxyquinolin-3-yl)-1H-imidazol-2-yl)-4-(thiazol-4-ylmethyl)-1,4-diazepan-1-yl)ethan-1-one], for which the EC50 was less than 100 nM.

For the compound `COc1ccc2nc(C(F)(F)F)n(CC(=O)N3CCS(=O)(=O)CC3c3ncc(-c4cc5ccccc5nc4OC)[nH]3)c2c1` (stereo not drawn) [2-(6-methoxy-2-(trifluoromethyl)-1H-benzo[d]imidazol-1-yl)-1-(3-(5-(2-methoxyquinolin-3-yl)-1H-imidazol-2-yl)-1,1-dioxidothiomorpholino)ethan-1-one], the EC50 is 100 to 500 nM.

On to `CN1CCN(C(=O)Cc2ccccc2)[C@H](c2ncc(-c3ccc4ccccc4c3)[nH]2)C1`, for which the EC50 fell in the range of 1010 to 5000 nM.

Take `COc1nc2ccccc2cc1-c1cnc([C@@H]2CN(Cc3cnn(C)c3)CCN2C(=O)Cn2c(C(F)(F)F)nc3ccccc32)[nH]1`: the EC50 lay within 100 to 500 nM.

Consider `COc1ccc2nc(C(F)(F)F)n(CC(=O)N3CC[C@H](NCc4nccs4)C[C@H]3c3ncc(-c4cc5ccccc5nc4OC)[nH]3)c2c1` [2-(6-methoxy-2-(trifluoromethyl)-1H-benzo[d]imidazol-1-yl)-1-((2S,4S)-2-(5-(2-methoxyquinolin-3-yl)-1H-imidazol-2-yl)-4-((thiazol-2-ylmethyl)amino)piperidin-1-yl)ethan-1-one], for which the EC50 is less than 100 nM.

Regarding `COc1ccc2nc(C(F)(F)F)n(CC(=O)N3CC[C@H](N(C)Cc4nccs4)C[C@H]3c3ncc(-c4cc5ccccc5nc4OC)[nH]3)c2c1` [2-(6-methoxy-2-(trifluoromethyl)-1H-benzo[d]imidazol-1-yl)-1-((2S,4S)-2-(5-(2-methoxyquinolin-3-yl)-1H-imidazol-2-yl)-4-(methyl(thiazol-2-ylmethyl)amino)piperidin-1-yl)ethan-1-one], the EC50 is less than 100 nM.
